# The source made the active and inactive calls. No cut-off for these calls is given here.
# Legend:
# HeLa [1] = test: Induction of apoptosis in human HeLa cells assessed as late apoptotic cells at 1 uM incubated for 48 hrs by annexin V FITC and propidium iodide staining based flow cytometry analysis (reference value: 8.87%); assay type: functional
# HeLa [2] = test: Induction of mitochondrial membrane potential alteration in human HeLa cells assessed as early apoptotic cells at 250 nM measured after 48 hrs by JC1 staining-based flow cytometry analysis (reference value: 9.07 %); assay type: functional
# HeLa [3] = test: Induction of mitochondrial membrane potential alteration in human HeLa cells assessed as necrotic cells at 500 nM measured after 48 hrs by JC1 staining-based flow cytometry analysis (reference value: 0%); assay type: functional
# HeLa [4] = test: Induction of apoptosis in human HeLa cells assessed as necrotic cells at 750 nM incubated for 48 hrs by annexin V FITC and propidium iodide staining based flow cytometry analysis (reference value: 1.85 %); assay type: functional
# HeLa [5] = test: Induction of mitochondrial membrane potential alteration in human HeLa cells assessed as early apoptotic cells at 500 nM measured after 48 hrs by JC1 staining-based flow cytometry analysis (reference value: 9.07 %); assay type: functional
# HeLa [6] = test: Induction of apoptosis in human HeLa cells assessed as late apoptotic cells at 500 nM incubated for 48 hrs by annexin V FITC and propidium iodide staining based flow cytometry analysis (reference value: 8.87%); assay type: functional
# [7] = Antiproliferative activity against human A549/PTX cells assessed as reduction in cell viability measured for 48 hrs by MTS assay; assay type: functional, cell-based
# HeLa [8] = test: Induction of mitochondrial membrane potential alteration in human HeLa cells assessed as late apoptotic cells at 250 nM measured after 48 hrs by JC1 staining-based flow cytometry analysis (reference value: 0.009%); assay type: functional
# HCT-116 = test: Antiproliferative activity against human HCT-116 cells assessed as reduction in cell viability incubated for 48 hrs by MTS assay; assay type: functional, cell-based; settings: HCT-116, 48 h
# HeLa [9] = test: Induction of apoptosis in human HeLa cells assessed as necrotic cells at 100 nM incubated for 48 hrs by annexin V FITC and propidium iodide staining based flow cytometry analysis (reference value: 1.85 %); assay type: functional
# HeLa [10] = test: Induction of mitochondrial membrane potential alteration in human HeLa cells assessed as viable cells at 250 nM measured after 48 hrs by JC1 staining-based flow cytometry analysis (reference value: 90.9%); assay type: functional; settings: read-out: Activity
# HeLa [11] = test: Induction of apoptosis in human HeLa cells assessed as viable cells at 750 nM incubated for 72 hrs by annexin V FITC and propidium iodide staining based flow cytometry analysis (reference value: 90.1%); assay type: functional; settings: read-out: Activity
# HeLa [12] = test: Induction of apoptosis in human HeLa cells assessed as necrotic cells at 750 nM incubated for 24 hrs by annexin V FITC and propidium iodide staining based flow cytometry analysis (reference value: 1.14 %); assay type: functional
# HeLa [13] = test: Induction of apoptosis in human HeLa cells assessed as viable cells at 750 nM incubated for 48 hrs by annexin V FITC and propidium iodide staining based flow cytometry analysis (reference value: 85.5%); assay type: functional; settings: read-out: Activity
# HeLa [14] = test: Induction of mitochondrial membrane potential alteration in human HeLa cells assessed as late apoptotic cells at 1 uM measured after 48 hrs by JC1 staining-based flow cytometry analysis (reference value: 0.009%); assay type: functional
# HeLa [15] = test: Induction of apoptosis in human HeLa cells assessed as necrotic cells at 750 nM incubated for 72 hrs by annexin V FITC and propidium iodide staining based flow cytometry analysis (reference value: 2.88 %); assay type: functional
# HeLa [16] = test: Induction of apoptosis in human HeLa cells assessed as late apoptotic cells at 750 nM incubated for 48 hrs by annexin V FITC and propidium iodide staining based flow cytometry analysis (reference value: 8.87%); assay type: functional
# HeLa [17] = test: Induction of mitochondrial membrane potential alteration in human HeLa cells assessed as late apoptotic cells at 100 nM measured after 48 hrs by JC1 staining-based flow cytometry analysis (reference value: 0.009%); assay type: functional
# [18] = Metabolic stability in rat liver microsomes assessed as intrinsic clearance incubated for 5 mins in presence of NADPH by HPLC analysis; assay type: ADME, Microsome; settings: read-out: CLH
# HeLa [19] = test: Induction of apoptosis in human HeLa cells assessed as viable cells at 1 uM incubated for 24 hrs by annexin V FITC and propidium iodide staining based flow cytometry analysis (reference value: 85.7%); assay type: functional; settings: read-out: Activity
# HeLa [20] = test: Induction of apoptosis in human HeLa cells assessed as late apoptotic cells at 750 nM incubated for 72 hrs by annexin V FITC and propidium iodide staining based flow cytometry analysis (reference value: 4.70%); assay type: functional
# HeLa [21] = test: Induction of apoptosis in human HeLa cells assessed as viable cells at 750 nM incubated for 24 hrs by annexin V FITC and propidium iodide staining based flow cytometry analysis (reference value: 85.7%); assay type: functional; settings: read-out: Activity
# HeLa [22] = test: Induction of apoptosis in human HeLa cells assessed as early apoptotic cells at 1 uM incubated for 48 hrs by annexin V FITC and propidium iodide staining based flow cytometry analysis (reference value: 6.01%); assay type: functional
# [23] = Resistance index, ratio of IC50 for antiproliferative activity against human A549/PTX cells assessed as reduction in cell viability to IC50 for antiproliferative activity against human A549 cells assessed as reduction in cell viability; assay type: functional
# HeLa [24] = test: Induction of apoptosis in human HeLa cells assessed as viable cells at 500 nM incubated for 24 hrs by annexin V FITC and propidium iodide staining based flow cytometry analysis (reference value: 85.7%); assay type: functional; settings: read-out: Activity
# HeLa [25] = test: Induction of mitochondrial membrane potential alteration in human HeLa cells assessed as necrotic cells at 250 nM measured after 48 hrs by JC1 staining-based flow cytometry analysis (reference value: 0%); assay type: functional
# HeLa [26] = test: Induction of mitochondrial membrane potential alteration in human HeLa cells assessed as late apoptotic cells at 500 nM measured after 48 hrs by JC1 staining-based flow cytometry analysis (reference value: 0.009%); assay type: functional
# [27] = Metabolic stability in rat liver microsomes incubated for 5 mins in absence of NADPH by HPLC analysis; assay type: ADME, Microsome
# HeLa [28] = test: Induction of apoptosis in human HeLa cells assessed as early apoptotic cells at 750 nM incubated for 48 hrs by annexin V FITC and propidium iodide staining based flow cytometry analysis (reference value: 6.01%); assay type: functional
# HeLa [29] = test: Induction of apoptosis in human HeLa cells assessed as late apoptotic cells at 100 nM incubated for 72 hrs by annexin V FITC and propidium iodide staining based flow cytometry analysis (reference value: 4.70%); assay type: functional
# HeLa [30] = test: Induction of apoptosis in human HeLa cells assessed as late apoptotic cells at 1 uM incubated for 24 hrs by annexin V FITC and propidium iodide staining based flow cytometry analysis (reference value: 0.05%); assay type: functional
# HeLa [31] = test: Induction of cell cycle arrest in human HeLa cells assessed as reduction of cells at G1 phase at 100 to 2000 nM incubated for 24 to 48 hrs by […] flow cytometry; assay type: functional; settings: dose 100-2000 nM, time 24-48 hrs
# HeLa [32] = test: Induction of apoptosis in human HeLa cells assessed as viable cells at 100 nM incubated for 48 hrs by annexin V FITC and propidium iodide staining based flow cytometry analysis (reference value: 85.5%); assay type: functional; settings: read-out: Activity
structure (smiles),measurement,setting,value
COc1cc(C(=O)c2nc(N3CCCC3)nc3ccsc23)cc(OC)c1OC,Activity,HeLa [1],41.2%
same,Activity,HeLa [2],9.45%
same,Activity,HeLa [3],0.01%
same,Activity,HeLa [4],22.5%
same,Activity,HeLa [5],33.1%
same,Activity,HeLa [6],10.8%
same,IC50,[7],24.4 nM
same,Activity,HeLa [8],0.01%
same,IC50,HCT-116,21 nM
same,Activity,HeLa [9],2.38%
same,viability at 0.25 µM,HeLa [10],90.5%
same,viability at 0.75 µM,HeLa [11],27.7%
same,Activity,HeLa [12],3.09%
same,viability at 0.75 µM,HeLa [13],36.7%
same,Activity,HeLa [14],0.053%
same,Activity,HeLa [15],40.8%
same,Activity,HeLa [16],33.1%
same,Activity,HeLa [17],0.02%
same,microsomal CLint,[18],40.8 µL/min/mg
same,viability at 1 µM,HeLa [19],80.1%
same,Activity,HeLa [20],21.3%
same,viability at 0.75 µM,HeLa [21],81.3%
same,Activity,HeLa [22],2.09%
same,Ratio IC50,[23],1.7
same,viability at 0.5 µM,HeLa [24],80.1%
same,Activity,HeLa [25],0.01%
same,Activity,HeLa [26],0.019%
same,Stability,[27],Stable
same,Activity,HeLa [28],7.72%
same,Activity,HeLa [29],8.57%
same,Activity,HeLa [30],0.13%
same,Activity,HeLa [31],Active
same,viability at 0.1 µM,HeLa [32],60.7%
